Legend:
[1] = Solid-state change of Rifaximin α form on wet granulation with purified water; assay type: physicochemical; conditions: purified water as binding agent
[2] = Solid-state stability of the α/β ratio after dry granulation and tableting, DRX (powder); assay type: physicochemical; conditions: tablets before coating, ground in a mortar
[3] = literature studies (Cellai et al. 1983; Viscomi et al. 2008); cited from earlier work

CO[C@H]1/C=C/O[C@@]2(C)Oc3c(C)c(O)c4c(O)c(c5c(nc6cc(C)ccn65)c4c3C2=O)NC(=O)/C(C)=C\C=C\[C@H](C)[C@H](O)[C@@H](C)[C@@H](O)[C@@H](C)[C@H](OC(C)=O)[C@@H]1C [Rifaximin α form, Rifaximin]
Amount of Rifaximin β form afforded by wet granulation [1]: < 50%

Rifaximin [Rifaximin α/β polymorphic mixture 88/12]
Relative ratio between the α/β polymorphic form after dry granulation and tableting [2]: stable

Rifaximin [δ]
Absorption from the intestine [3]: could be significantly absorbed

Reference: US11739099B2 (CURIA IP HOLDINGS, LLC, priority 2014, dated 2023)
